Experimental data taken from ChEMBL document CHEMBL3751711, “Design and synthesis of novel Y-shaped barbituric acid derivatives as PPARγ activators” (Eur J Med Chem, 2016).

biological target: T1, Peroxisome proliferator-activated receptor gamma (Homo sapiens, UniProt P37231); assay: Binding affinity to GST-tagged human PPAR-gamma receptor by FRET assay; settings: not given
T1 sequence (P37231 whole entry): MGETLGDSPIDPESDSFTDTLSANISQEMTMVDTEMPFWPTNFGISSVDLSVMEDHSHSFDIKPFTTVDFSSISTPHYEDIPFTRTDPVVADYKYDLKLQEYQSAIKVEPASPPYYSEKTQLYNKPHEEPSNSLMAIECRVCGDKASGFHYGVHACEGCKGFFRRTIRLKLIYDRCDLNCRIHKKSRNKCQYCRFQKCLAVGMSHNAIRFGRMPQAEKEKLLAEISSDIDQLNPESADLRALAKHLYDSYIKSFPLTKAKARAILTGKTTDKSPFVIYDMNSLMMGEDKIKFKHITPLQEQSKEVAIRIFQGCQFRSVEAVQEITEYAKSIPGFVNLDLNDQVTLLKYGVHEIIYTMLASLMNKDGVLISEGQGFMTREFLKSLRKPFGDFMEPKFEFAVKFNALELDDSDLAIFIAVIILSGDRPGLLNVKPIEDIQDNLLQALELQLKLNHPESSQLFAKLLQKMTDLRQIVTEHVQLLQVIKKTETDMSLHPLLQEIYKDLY

SMILES | IC50
CC(=O)OCCN(CCOC(C)=O)c1ccc(C=C2C(=O)NC(=O)NC2=O)cc1 | Not Active
O=C1NC(=O)C(=Cc2ccc(N(CCOCc3ccc(F)cc3)CCOCc3ccc(F)cc3)cc2)C(=O)N1 | Not Active
COc1ccc(COCCN(CCOC(C)=O)c2ccc(C=C3C(=O)NC(=O)NC3=O)cc2)cc1 | Not Active
O=C1NC(=O)C(=Cc2ccc(N(CCOCc3ccccc3)CCOC(c3ccccc3)(c3ccccc3)c3ccccc3)cc2)C(=O)N1 | Not Active
COc1ccc(COCCN(CCOCc2ccc(Br)cc2)c2ccc(C=C3C(=O)NC(=O)NC3=O)cc2)cc1 | Not Active
O=C1NC(=O)C(=Cc2ccc(N(CCOc3ccccn3)CCOc3ccccn3)cc2)C(=O)N1 | Not Active

same assay, conditions: read-out: IC50

SMILES | IC50
N#Cc1ccc(OCCN(CCOc2ccc(C#N)cc2)c2ccc(C=C3C(=O)NC(=O)NC3=O)cc2)cc1 | 6.5 µM
CC(=O)OCCN(CCOCc1ccccc1)c1ccc(C=C2C(=O)NC(=O)NC2=O)cc1 | > 200 µM
O=C1NC(=O)C(=Cc2ccc(N(CCO)CCOC(c3ccccc3)(c3ccccc3)c3ccccc3)cc2)C(=O)N1 | 22.2 µM
COc1ccc(COCCN(CCOCc2ccccc2)c2ccc(C=C3C(=O)NC(=O)NC3=O)cc2)cc1 | 191 µM
O=C1NC(=O)C(=Cc2ccc(N(CCOc3ccc([N+](=O)[O-])cc3)CCOc3ccc([N+](=O)[O-])cc3)cc2)C(=O)N1 | 10.1 µM
COc1ccc(COCCN(CCOc2ccccn2)c2ccc(C=C3C(=O)NC(=O)NC3=O)cc2)cc1 | 84 µM
O=C1NC(=O)C(=Cc2ccc(N(CCOCc3ccccc3)CCOCc3ccccc3)cc2)C(=O)N1 | 78.4 µM
O=C1NC(=O)C(=Cc2ccc(OCc3ccccc3)cc2)C(=O)N1 | 0.1 µM
COc1ccc(COCCN(CCOCc2ccc(OC)cc2)c2ccc(C=C3C(=O)NC(=O)NC3=O)cc2)cc1 | 59.1 µM
